Data as given in patent publication US20160176894A1, “TAXANE AND ABEO-TAXANE ANALOGS” (Arbor Therapeutics, LLC, priority 2013, published 2016).
Where two headings read alike, the source gives them in different places.

Legend:
CCRF-CEM (CEM) cells = assay: MTT-based cytotoxicity assay, CEM; format: cell-based, human; details: sensitive parental line
Excerpt: (§1) These lines included a uterine sarcoma line, MES-SA. (Harker, W. G.; MacKintosh, F. R.; Sikic, B. I., Development and characterization of a human sarcoma cell line, MES-SA, sensitive to multiple drugs. Cancer Res. 1983, 43, 4943-4950), and its doxorubicin-resistant subline, MES-SA/DxS. (Harker, W. G.; Sikic, B. I., Multidrug (pleiotropic) resistance in doxorubicin-selected variants of the human sarcoma cell line MES-SA. Cancer Res. 1985, 45, 4091-4096). […] However, resistance to bleomycin, cisplatin, carmustine, 5-fluorouracil or methotrexate is not observed. MES-SA/Dx5 cells express high levels of ABCB 1 (MDR1) mRNA and its gene product, the P-glycoprotein. MES-SA and MES-SA/Dx5 were purchased from the American Type Culture Collection (ATCC, Manassas, Va.).
(§2) The second set of cells tested, CCRF-CEM or simply CEM, were derived from the blood of a patient with acute lymphobiastic leukemia. (Foley, G. E.; Lazarus, H.; Farber, S.; Uzman, B. G.; Boone, B. A.; McCarthy, R. E., Continuous Culture of Human Lymphoblasts from Peripheral Blood of a Child with Acute Leukemia. Cancer 1965, 18, 522-529). The subline CEM/VLB100 was developed to be resistant to up to vinblastine at 100 ng/ml. (Beck, W. T.; Mueller, T. J.; Tanzer, L. R., Altered surface membrane glycoproteins in Vinca alkaloid-resistant human leukemic lymphoblasts. Cancer Res. 1979, 39, 2070-2076). Drug resistance is achieved by overexpression of the MDR1 gene. Resistance in the CEM subline designated CEM/VM-1-5, however, is “atypical.” (Danks, M. K.; Yalowich, J. C.; Beck, W. T., Atypical multiple drug resistance in a human leukemic cell line selected for resistance to teniposide (VM-26). Cancer Res. 1987, 47, 1297-1301). The classes of drugs included in the “classic” multiple drug resistance phenotype are Vinca alkaloids, anthracyclines, epipodophyllotoxins and antibiotics. However, CEM/VM-1-5 cells retain sensitivity to the Vinca alkaloids despite resistance and cross-resistance to etoposide, anthracyclines and mitoxantrone. (Danks, M. K.; Schmidt, C. A.; Cirtain, M. C.; Suttle, D. P.; Beck, W. T., Altered catalytic activity of and DNA cleavage by DNA topoisomerase II from human leukemic cells selected for resistance to VM-26. Biochemistry 1988, 27, 8861-8869). Resistance in CEM/VM-1-5 cells is effected by over expression of the ABCC1 (MRP1) gene. CEM, CEM/VLB100 and CEM/VM-1-5 cells were obtained from Dr. WT Beck, University of Illinois at Chicago.

CEM/VLB100 cells = assay: MTT-based cytotoxicity assay, CEM/VLB100; format: cell-based, human; details: for Degree of resistance (CEM/VLB100): IC50 of the resistant line divided by IC50 of sensitive CEM cells; for IC50: vinblastine-resistant subline (MDR1)
Description: as §2

[1] = system: MES-SA uterine sarcoma line; assay: MTT-based cytotoxicity assay, MES-SA; format: cell-based, human; details: sensitive parental line
Excerpt: as §1

[2] = system: MES-SA/Dx5 doxorubicin-resistant subline; assay: MTT-based cytotoxicity assay, MES-SA/Dx5; format: cell-based, human; details: for Degree of resistance (MES-SA/Dx5): IC50 of the resistant line divided by IC50 of sensitive MES-SA cells; for IC50: MTT, multidrug resistant subline (MDR1/P-glycoprotein)
Excerpt: as §1

tubulin = tubulin protein assembly assay; format: biochemical; details: for ED50/ED50 (Paclitaxel): ratio to paclitaxel; for EC50: tubulin assembly, read-out: ED50 (the source's name)
[3] = system: cancer cell lines, both MDR expressing and non-MDR expressing; assay: MTS proliferation assay, cell line panel (general statements); format: cell-based
Description: (§3) Day 1: Cells were plated in appropriate growth medium at 5×10^3 per well in 100 μL in 96 well tissue culture plates, Falcon, one plate for each drug to be tested. Column 1 was blank; it contained medium, but no cells. The plates were incubated overnight at 37° C. in 5% CO2 to allow attachment. Day 2: Drug diluted in culture media was added to the cells at a concentration of 0.005 nM to 10 μM in quadruplicate. After 48-72 hours of drug exposure, the MTS agent was added to all wells and incubated 1-6 hrs (37° C., 5% CO2), depending on cell type, as per CellTiter 96® AQueous Non-Radioactive Cell Proliferation Assay (MTS), Promega. Plates were processed using a Bio-Tek Synergy HT Multi-detection microtiter plate reader at 490 nanometer wavelength and data were processed with KC4V.3 software. Data plots of drug concentration vs. absorbance were plotted and IC50 values were extrapolated for each of the tested compounds.

A2780-A5 = assay: MTS proliferation assay, A2780-A5; format: cell-based; details: read-out: MTS-6: 72 hr proliferation IC50, A2780-A5
Description: as §3

22Rv1 = assay: MTS proliferation assay, 22Rv1; format: cell-based; details: read-out: MTS-6: 72 hr proliferation IC50, 22Rv1
Description: as §3

A2680-DXR1 (MDR+) = assay: MTS proliferation assay, A2680-DXR1; format: cell-based; details: 72 hr, read-out: MTS-6: 72 hr proliferation IC50, A2680-DXR1
Description: as §3

MV522 = assay: MTS proliferation assay, MV522; format: cell-based; details: read-out: MTS-6: 72 hr proliferation IC50, MV522
Description: as §3

MDAH2774 = assay: MTS proliferation assay, MDAH2774; format: cell-based; details: read-out: MTS-6: 72 hr proliferation IC50, MDAH2774
Description: as §3

HCT-15 (MDR+) = assay: MTS proliferation assay, HCT-15; format: cell-based; details: read-out: MTS-6: 72 hr proliferation IC50, HCT-15
Description: as §3

CEM/VM-1-5 cells = assay: MTT-based cytotoxicity assay, CEM/VM-1-5; format: cell-based, human; details: for Degree of resistance (CEM/VM-1-5): IC50 of the resistant line divided by IC50 of sensitive CEM cells; for IC50: MTT, atypical MDR subline (ABCC1/MRP1)
Description: as §2

KB = assay: MTS proliferation assay, KB; format: cell-based; details: Homo sapiens, MDR negative, extrapolated outside tested range
Description: as §3

HT29 = assay: MTS proliferation assay, HT29; format: cell-based; details: Homo sapiens, HT-29, MDR negative, extrapolated outside tested range
Description: as §3

MDAMB435s = assay: MTS proliferation assay, MDAMB435s; format: cell-based; details: Homo sapiens, MDA-MB-435S, MDR negative, extrapolated outside tested range
Description: as §3

DU145 = assay: MTS proliferation assay, DU145; format: cell-based; details: Homo sapiens, DU-145, MDR negative, extrapolated outside tested range
Description: as §3

MV522/Mdr1 = assay: MTS proliferation assay, MV522/Mdr1; details: read-out: IC50 MV522/Mdr1
Description: as §3

KBV = assay: MTS proliferation assay, KBV; format: cell-based; details: MDR positive
Description: as §3

SKNAS = assay: MTS proliferation assay, SKNAS; format: cell-based; details: Homo sapiens, SK-N-AS, MDR negative, extrapolated outside tested range
Description: as §3

MESSA/DOX = assay: MTS proliferation assay, MESSA/DOX; format: cell-based; details: Homo sapiens, MDR positive
Description: as §3

Molecule	IC50 (CCRF-CEM (CEM) cells) [nM]	Degree of resistance (CEM/VLB100) (CEM/VLB100 cells)	IC50 (CEM/VLB100 cells; MTT) [nM]	IC50 [1] [nM]	Degree of resistance (MES-SA/Dx5) [2]	IC50 [2] [nM]	ED50/ED50 (Paclitaxel) (tubulin)	EC50 (tubulin) [nM]	Degree of resistance (CEM/VM-1-5) (CEM/VM-1-5 cells)	IC50 (CEM/VM-1-5 cells) [nM]	IC50 (CEM/VM-1-5 cells; Homo sapiens) [nM]	IC50 ([1]; Homo sapiens, MES-SA) [nM]	IC50 ([2]; Homo sapiens, MES-SA/Dx5) [nM]	further results
C=CC1OC2CC3OCC3(OC(C)=O)C3C(OC(=O)c4ccccc4)C4(O)CC(OC(=O)C(O)C(CC(C)C)NC(=O)OC(C)(C)C)C(C)=C(C(OC(C)=O)C(O1)C23C)C4(C)C (mixture of isomers) [10-αTX (14a.2)]	14 ± 5	3 ± 0.6	43 ± 23	30 ± 14	1.1 ± 0.3	34 ± 24								
C=CC1OC2CC3OCC3(OC(C)=O)C3C(OC(=O)c4ccccc4)C4(C(C)(C)O)CC(OC(=O)C(O)C(CC(C)C)NC(=O)OC(C)(C)C)C(C)=C4C(OC(C)=O)C(O1)C23C (stereo not drawn) [10-αAT (15a.2)]	5 ± 3	4 ± 0	19 ± 9	9.5 ± 0.7	1.6 ± 0.8	15 ± 8	0.53	1580 ± 460	1.3 ± 1.4	5 ± 4				affinity for tubulin (in words) (tubulin; compared to several recognized tubulin binding agents): surprisingly great affinity for tubulin; IC50 [3]: < 1000 nM; IC50 (A2780-A5; 72 hr): 0.282 nM; IC50 (22Rv1; 72 hr): 5.7 nM; IC50 (A2680-DXR1 (MDR+)): 15 nM; IC50 (MV522; 72 hr): 3.5 nM; IC50 (MDAH2774; 72 hr): 0.18 nM; IC50 (HCT-15 (MDR+); 72 hr): 2.4 nM
C=C[C@H]1O[C@H]2C[C@H]3OC[C@@]3(OC(C)=O)[C@H]3[C@H](OC(=O)c4ccccc4)[C@]4(C(C)(C)O)C[C@H](OC(=O)[C@H](O)[C@H](CC(C)C)NC(=O)OC(C)(C)C)C(C)=C4[C@@H](OC(C)=O)[C@H](O1)[C@]23C [10-βAT (15b.2)]	112 ± 60	4 ± 0.3	453 ± 293	432 ± 261	0.75 ± 0.07	328 ± 173			0.9 ± 0.5	77 ± 6				
C=CC1OC2CC3OCC3(OC(C)=O)C3C(OC(=O)c4ccccc4)C4(O)CC(OC(=O)C(O)C(CC(C)C)NC(=O)OC(C)(C)C)C(C)=C(C(OC(C)=O)C(O1)C23C)C4(C)C (stereo not drawn) [10-βTX (14b.2), 10-beta taxane acrolein acetal]		3 ± 1			1.2 ± 0.5				1.2 ± 0.3		9 ± 1	28 ± 16	36 ± 34	IC50 (CCRF-CEM (CEM) cells; Homo sapiens, CCRF-CEM): 7.5 ± 0.7 nM; IC50 (CEM/VLB100 cells; Homo sapiens, CEM/VLB100, MTT): 22 ± 11 nM
CC(=O)O[C@@]12CO[C@@H]1C[C@H](O)[C@@]1(C)C(=O)[C@H](O)C3=C(C)[C@@H](OC(=O)[C@H](O)[C@@H](NC(=O)OC(C)(C)C)c4ccccc4)C[C@@](O)([C@@H](OC(=O)c4ccccc4)[C@H]21)C3(C)C [Docetaxel]							1.07	3180 ± 450						
CC(=O)O[C@H]1C(=O)[C@@]2(C)[C@H]([C@H](OC(=O)c3ccccc3)[C@]3(O)C[C@H](OC(=O)[C@H](O)[C@@H](NC(=O)c4ccccc4)c4ccccc4)C(C)=C1C3(C)C)[C@]1(OC(C)=O)CO[C@@H]1C[C@@H]2O [Paclitaxel]			3030		3105 ± 2416				4	8	< 11	9 ± 7	19400 ± 204	IC50 (KB): < 0.002 nM; IC50 (A2780-A5; 72 h): < 0.002 nM; IC50 (22Rv1; Homo sapiens, 22Rv1, 72 h): 1.7 nM; IC50 (A2680-DXR1 (MDR+)): 3580 nM; IC50 (MV522; MV522, 72 h): 1.71 nM; IC50 (HT29): < 0.002 nM; IC50 (MDAMB435s): < 0.002 nM; IC50 (MDAH2774; Homo sapiens, MDAH 2774, 72 h): 0.015 nM; IC50 (HCT-15 (MDR+); Homo sapiens, HCT-15, 72 hr): 311 nM; IC50 (DU145): < 0.002 nM; IC50 (MV522/Mdr1): ≥ 500 nM; IC50 (KBV): ≥ 500 nM; IC50 (SKNAS): < 0.002 nM; IC50 (MESSA/DOX): ≥ 500 nM
CC[C@]1(O)C[C@@H]2CN(CCc3c([nH]c4ccccc34)[C@@](C(=O)OC)(c3cc4c(cc3OC)N(C)[C@H]3[C@@](O)(C(=O)OC)[C@H](OC(C)=O)[C@]5(CC)C=CCN6CC[C@]43[C@@H]65)C2)C1 [Vinblastine]		255 ± 127			38.5 ± 0.7				1.2 ± 0.07		1.3 ± 0.9	[…]	43 ± 12	IC50 (CCRF-CEM (CEM) cells; Homo sapiens, CCRF-CEM): 1 ± 0.8 nM; IC50 (CEM/VLB100 cells; Homo sapiens, CEM/VLB100, MTT): 227 ± 77 nM
Doxorubicin	14	150	2100	2	49	97			219	3060				
